Laboratory results: patent US4361673A, “Polypeptide compositions” (American Home Products Corporation, priority 1981, dated 1982)
Where a name gives a salt, the structure may show the parent alone. Non-standard residues stand in square brackets, D forms with d. Residues, ends and D or L forms follow the SMILES beside them. No end group written: not given here. pGlu = O=C1CC[C@@H](C(=O)O)N1

How the values were obtained:
[1] = several biological models; Low et al.; cited from earlier work
[2] = tested on: T lymphocytes isolated from spleens of male CBA/J or NZB mice; experiment: T lymphocyte proliferation, 3H-thymidine uptake; format: cell-based
Method: The activity of the compounds of Examples is determined according to the following procedure:
T lymphocytes are isolated from spleens of male CBA/J or NZB mice. Cell homogenates are prepared in Hank's balanced salt solution (HBSS). After removal of larger particles and repeated washing of the cells in HBSS they are suspended in minimum essential medium (MEM) and passed through a glass wool column to remove macrophages. The cells are then incubated on a nylon wool column at 37° C., 95% air, 5% CO2, for 45 minutes. The non-adherant T lymphocytes are then eluted from the column, counted, and adjusted to 20×10^6 cells/ml. 50 μl. of cells are cultured (37° C., 95% air, 5% Co2) with compound, for 48 hours before addition of 0.5 μCi. of 3H-thymidine for the last 16 hours of culture. The total volume of the culture system is 200 μl. The cells are then harvested on a multiple automatic sample harvester (Mash II), the glass fiber filter disks placed in 10 ml. of xylene base scintillation fluid, and counted for 1 minute in a liquid scintillation counter. Results are reported as CPM±SE. Levamisole is used as the standard. Comparisons are made between counts obtained with control cultures and cultures containing compound and a determination made as to whether the compounds are active at the dosage tested.

[3] = 1.5 ng/culture, control (0 ng) 49,519 ± 4048
[4] = 6.0 ng/culture, control (0 ng) 49,519 ± 4048
[5] = 25.0 ng/culture, control (0 ng) 49,519 ± 4048
[6] = 100.0 ng/culture, control (0 ng) 49,519 ± 4048

thymosin α1 (SDAAVDTSSEITTKDLKEKKEVVEEAEN; ends and bridges not checked; UniProt P06454 2-29, looked up)
activity relative to the parent thymosin Fraction 5 [1]: 10-1,000 times

CC(C)[C@H](NC(=O)[C@H](CCC(=O)O)NC(=O)[C@H](CCCCN)NC(=O)[C@@H](N)CCCCN)C(=O)O [H-- Lys--Lys--Glu Val--OH, L-Lysyl-L-lysyl-L-glutamyl-L-valine, diacetate salt] (H-KKEV-OH)
3H-Thymidine Uptake CPM + S.E. ([2]; 2.5 ng/culture, control (0 ng) 2,789 ± 148): 3,931 ± 140 CPM | 3H-Thymidine Uptake CPM + S.E. ([2]; 10 ng/culture, control (0 ng) 2,789 ± 148): 3,745 ± 172 CPM | 3H-Thymidine Uptake CPM + S.E. ([2]; 25 ng/culture, control (0 ng) 2,789 ± 148): 4,397 ± 346 CPM | 3H-Thymidine Uptake CPM + S.E. ([2]; 100 ng/culture, control (0 ng) 2,789 ± 148): 4,235 ± 284 CPM

NCCCC[C@H](NC(=O)[C@H](CCCCN)NC(=O)[C@@H]1CCC(=O)N1)C(=O)N[C@@H](CCC(=O)O)C(N)=O [p-Glu--Lys--Lys--Glu--NH2, L-(5-oxoprolyl)-L-lysyl-L-lysyl-L-α-glutamine, diacetate salt] ([pGlu]KKE-NH2)
3H-Thymidine Uptake CPM + S.E. [2, 3]: 73,407 ± 3333 CPM | 3H-Thymidine Uptake CPM + S.E. [2, 4]: 78,727 ± 7102 CPM | 3H-Thymidine Uptake CPM + S.E. [2, 5]: 73,932 ± 6944 CPM | 3H-Thymidine Uptake CPM + S.E. [2, 6]: 67,489 ± 5190 CPM

c1ccc([C@H]2CN3CCSC3=N2)cc1 [Levamisole, reference compound]
3H-Thymidine Uptake CPM + S.E. ([2]; 5 ng/culture, 48 h culture, 3H-thymidine last 16 h, control 49,519 ± 4048): 70,353 ± 1561 CPM

CC(=O)O.CC(=O)O.CC(=O)O.CC(C)[C@H](NC(=O)[C@H](CCC(=O)O)NC(=O)[C@H](CCCCN)NC(=O)[C@@H](N)CCCCN)C(N)=O [H--Lys--Lys--Glu--Val--NH2, L-lysyl-L-lysyl-L-glutamyl-L-valineamide, triacetate salt] (H-KKEV-NH2)
3H-Thymidine Uptake CPM + S.E. [2, 3]: 72,713 ± 3633 CPM | 3H-Thymidine Uptake CPM + S.E. [2, 4]: 77,979 ± 3760 CPM | 3H-Thymidine Uptake CPM + S.E. [2, 5]: 62,712 ± 6004 CPM | 3H-Thymidine Uptake CPM + S.E. [2, 6]: 51,021 ± 5527 CPM

CC(C)[C@H](NC(=O)[C@H](CCC(=O)O)NC(=O)[C@H](CCCCN)NC(=O)[C@H](CCCCN)NC(=O)[C@@H]1CCC(=O)N1)C(N)=O [p-Glu--Lys--Lys--Glu--Val--NH2, L-(5-oxoprolyl)-L-lysyl-L-lysyl-L-α-glutamyl-L-valinamide, diacetate salt] ([pGlu]KKEV-NH2)
3H-Thymidine Uptake CPM + S.E. ([2]; 1.5 ng/culture, control (0 ng) 9,876 ± 951): 23,736 ± 3417 CPM | 3H-Thymidine Uptake CPM + S.E. ([2]; 6.0 ng/culture, control (0 ng) 9,876 ± 951): 31,236 ± 2004 CPM | 3H-Thymidine Uptake CPM + S.E. ([2]; 25.0 ng/culture, control (0 ng) 9,876 ± 951): 26,026 ± 3537 CPM | 3H-Thymidine Uptake CPM + S.E. ([2]; 100.0 ng/culture, control (0 ng) 9,876 ± 951): 27,830 ± 1749 CPM
